What was measured:
[1] = Antiporter activity in Escherichia coli K12 wild type EcNhaA F72C mutant assessed as effect on lithium chloride-induced pH changes by acridine orange fluorescence assay
[2] = Antiporter activity in Escherichia coli K12 wild type EcNhaA G76C mutant assessed as effect on lithium chloride-induced pH changes by acridine orange fluorescence assay
[3] = Antiporter activity in Escherichia coli K12 wild type EcNhaA F71C mutant assessed as effect on sodium chloride-induced pH changes by acridine orange fluorescence assay
[4] = Antiporter activity in Escherichia coli K12 wild type EcNhaA H225Q mutant assessed as effect on lithium chloride-induced pH changes by acridine orange fluorescence assay
[5] = biological target: T1, Na(+)/H(+) antiporter NhaA (Escherichia coli K-12, UniProt P13738); assay: Antiporter activity in Escherichia coli K12 wild type EcNhaA assessed as effect on sodium chloride-induced pH changes by acridine orange fluorescence assay
T1 sequence (P13738 whole entry): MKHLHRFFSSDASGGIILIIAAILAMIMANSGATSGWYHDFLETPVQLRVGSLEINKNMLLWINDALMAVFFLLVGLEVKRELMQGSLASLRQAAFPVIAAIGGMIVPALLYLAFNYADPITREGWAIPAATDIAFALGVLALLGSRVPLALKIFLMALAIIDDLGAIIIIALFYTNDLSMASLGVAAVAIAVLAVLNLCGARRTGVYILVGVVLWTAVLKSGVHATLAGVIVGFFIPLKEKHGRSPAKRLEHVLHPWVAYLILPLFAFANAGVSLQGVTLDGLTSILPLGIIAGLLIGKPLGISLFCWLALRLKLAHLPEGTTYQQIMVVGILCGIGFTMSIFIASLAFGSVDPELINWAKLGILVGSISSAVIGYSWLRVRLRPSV

[6] = biological target: Na(+)/H(+) antiporter NhaA (Escherichia coli K-12, UniProt P13738, H225Q); assay: Antiporter activity in Escherichia coli K12 wild type EcNhaA H225Q mutant assessed as effect on sodium chloride-induced pH changes by acridine orange fluorescence assay
Na(+)/H(+) antiporter NhaA (Escherichia coli K-12, UniProt P13738, H225Q), sequence (P13738 whole entry H225Q): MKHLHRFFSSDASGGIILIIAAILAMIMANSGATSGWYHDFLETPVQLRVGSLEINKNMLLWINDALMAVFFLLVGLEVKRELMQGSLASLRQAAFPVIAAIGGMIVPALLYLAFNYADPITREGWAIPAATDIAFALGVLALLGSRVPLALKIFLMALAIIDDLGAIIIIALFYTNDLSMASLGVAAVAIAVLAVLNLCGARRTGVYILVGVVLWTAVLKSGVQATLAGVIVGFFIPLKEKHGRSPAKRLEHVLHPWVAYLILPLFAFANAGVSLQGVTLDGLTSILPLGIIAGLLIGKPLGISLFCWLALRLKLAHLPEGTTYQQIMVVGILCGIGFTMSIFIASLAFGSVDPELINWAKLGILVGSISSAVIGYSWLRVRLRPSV

[7] = biological target: Na(+)/H(+) antiporter NhaA (Escherichia coli K-12, UniProt P13738, W62C); assay: Antiporter activity in Escherichia coli K12 wild type EcNhaA W62C mutant assessed as effect on sodium chloride-induced pH changes by acridine orange fluorescence assay
Na(+)/H(+) antiporter NhaA (Escherichia coli K-12, UniProt P13738, W62C), sequence (P13738 whole entry W62C): as the sequence (P13738 whole entry H225Q) above, with W62C, Q225H counted along it

[8] = Antiporter activity in Escherichia coli K12 wild type EcNhaA N64C mutant assessed as effect on lithium chloride-induced pH changes by acridine orange fluorescence assay
[9] = Antiporter activity in Escherichia coli K12 wild type EcNhaA W62C mutant assessed as effect on lithium chloride-induced pH changes by acridine orange fluorescence assay
[10] = Antiporter activity in Escherichia coli K12 wild type EcNhaA F72C mutant assessed as effect on sodium chloride-induced pH changes by acridine orange fluorescence assay
[11] = Antiporter activity in Escherichia coli K12 wild type EcNhaA N64C mutant assessed as effect on sodium chloride-induced pH changes by acridine orange fluorescence assay
[12] = Antiporter activity in Escherichia coli K12 wild type EcNhaA G76C mutant assessed as effect on sodium chloride-induced pH changes by acridine orange fluorescence assay
[13] = biological target: T2, Na(+)/H(+) antiporter NhaA (Escherichia coli K-12, UniProt P13738, H225R); assay: Antiporter activity in Escherichia coli K12 wild type EcNhaA H225R mutant assessed as effect on lithium chloride-induced pH changes by acridine orange fluorescence assay
T2 sequence (P13738 whole entry H225R): as the sequence (P13738 whole entry H225Q) above, with Q225R counted along it

[14] = biological target: T2, Na(+)/H(+) antiporter NhaA; assay: Antiporter activity in Escherichia coli K12 wild type EcNhaA H225R mutant assessed as effect on sodium chloride-induced pH changes by acridine orange fluorescence assay
[15] = biological target: T1, Na(+)/H(+) antiporter NhaA; assay: Antiporter activity in Escherichia coli K12 wild type EcNhaA assessed as effect on lithium chloride-induced pH changes by acridine orange fluorescence assay
[16] = biological target: Na(+)/H(+) antiporter NhaA (Escherichia coli K-12, UniProt P13738, F71C); assay: Antiporter activity in Escherichia coli K12 wild type EcNhaA F71C mutant assessed as effect on lithium chloride-induced pH changes by acridine orange fluorescence assay
Na(+)/H(+) antiporter NhaA (Escherichia coli K-12, UniProt P13738, F71C), sequence (P13738 whole entry F71C): as the sequence (P13738 whole entry H225Q) above, with F71C, Q225H counted along it

Molecule `NC1=Nc2cccc3cccc(c23)N1` has an IC50 [1] of 2.6 µM, an IC50 [2] of 1.2 µM and an IC50 [3] of 0.3 µM. For the same molecule, the IC50 [4] was 7.8 µM, the IC50 [5] was 1.7 µM and the IC50 [6] was 0.8 µM. It also gave an IC50 [7] of 1.2 µM, an IC50 [8] of 17 µM and an IC50 [9] of 1.5 µM. For the same molecule, the IC50 [10] was 1.8 µM, the IC50 [11] was 0.5 µM and the IC50 [12] was 1.6 µM. For the same molecule, the IC50 [13] was 2.3 µM, the IC50 [14] was 1 µM and the IC50 [15] was 2.2 µM. For the same molecule, the IC50 [16] was 0.8 µM.

From ChEMBL document CHEMBL1156532, “Model structure of the Na+/H+ exchanger 1 (NHE1): functional and clinical implications” (J Biol Chem, 2007)
